In general, IC50 refers to the concentration at which inhibition is half-maximal. The CC50 is the concentration at which the toxic effect on the cells reaches its halfway point.

The source made the active and inactive calls. The rule behind the calls is not given here. Where only a bound is given, the exact number is not on record here.

One data set deals with Plasmodium berghei. The data set can be described thus: Antimalarial activity against GFP-luciferase expressing liver stage Plasmodium berghei sporozoites infected in human HepG2 cells assessed as inhibition of parasitic growth by luminescence based analysis. In kind it is functional, organism-based.
The subject of data set [1] is Plasmodium falciparum. The data set can be described thus: Antimalarial activity against chloroquine-sensitive Plasmodium falciparum 3D7 infected in human erythrocytes assessed as reduction in parasite growth incubated for 72 hrs by SYBR green dye fluorimetric assay. The data set is classed as functional, organism-based. The following applies: 3D7, Erythrocyte.
Data set [2] has as its system Plasmodium falciparum. The data set can be described thus: Antimalarial activity against […] infected in human erythrocytes assessed as reduction in parasite growth incubated for 72 hrs by SYBR green dye fluorimetric assay. In kind it is functional, organism-based. The following applies: K1, Erythrocyte.
The test system of data set [3] is Plasmodium falciparum. The data set can be described thus: Induction of morphological changes in asexual blood stage Plasmodium falciparum assessed as appearance of compact structure at 1 uM incubated for 24 hrs by Geimsa-staining based light microscopic analysis. In kind it is functional, organism-based.
Data set [4] is described as follows: Resistance index, ratio of IC50 for antimalarial activity against […] infected in human erythrocytes to IC50 for antimalarial activity against chloroquine-sensitive Plasmodium falciparum 3D7 infected in erythrocytes. In kind it is functional.
The subject of data set [5] is Plasmodium falciparum. The data set can be described thus: Induction of morphological changes in asexual blood stage Plasmodium falciparum assessed as lack of prominent periphery in trophozoites at 1 uM incubated for 24 hrs by Geimsa-staining based light microscopic analysis. The data set is classed as functional, organism-based.
The nature of data set [6]: Cytotoxicity against human HepG2 cells. The data set is classed as toxicity, cell-based.
For data set [7], the system named is Plasmodium falciparum. The data set can be described thus: Induction of morphological changes in asexual blood stage Plasmodium falciparum assessed as appearance of schizonts at 1 uM incubated for 48 to 72 hrs by Geimsa-staining based light microscopic analysis. The data set is classed as functional, organism-based. Conditions: time 48-72 hrs.
For data set [8], the system named is Plasmodium falciparum. Put plainly: Antimalarial activity against […] infected in human erythrocytes assessed as inhibition of parasitic growth at 5 uM incubated for 72 hrs by SYBR green dye fluorimetric assay relative to control. Further details: scale not given: the % may be the effect or the level left. In kind it is functional, K1, Erythrocyte.
For data set [9], the system named is Plasmodium falciparum. Put plainly: Induction of morphological changes in asexual blood stage Plasmodium falciparum assessed as appearance of healthy rings at 1 uM incubated for 48 to 72 hrs by Geimsa-staining based light microscopic analysis. In kind it is functional, organism-based. The following applies: time 48-72 hrs.
A short description of data set [10]: Selectivity index, ratio of CC50 for cytotoxicity against human HepG2 cells to IC50 for antimalarial activity against chloroquine-sensitive Plasmodium falciparum 3D7 infected in human erythrocytes assessed as reduction in parasite growth incubated for 72 hrs by SYBR green dye fluorimetric assay. The data set is classed as toxicity, cell-based. Conditions: read-out: Ratio CC50/IC50.

Data set [11] concerns Plasmodium falciparum. Put plainly: Induction of morphological changes in asexual blood stage Plasmodium falciparum assessed as appearance of fragmentation at 1 uM incubated for 24 hrs by Geimsa-staining based light microscopic analysis. In kind it is functional, organism-based.
The test system of data set [12] is Plasmodium falciparum. Put plainly: Induction of morphological changes in asexual blood stage Plasmodium falciparum assessed as appearance of condensed cytoplasm at 1 uM incubated for 24 hrs by Geimsa-staining based light microscopic analysis. The data set is classed as functional, organism-based.
Data set [13] concerns Plasmodium falciparum. Put plainly: Antimalarial activity against chloroquine-sensitive Plasmodium falciparum 3D7 infected in erythrocytes assessed as inhibition of parasite growth at 0.16 to 0.31 uM incubated for 72 hrs by SYBR green dye fluorimetric assay. The data set is classed as functional, organism-based. The following applies: Erythrocyte, dose 0.16-0.31 µM.
Data set [14] has as its system Plasmodium falciparum. The data set can be described thus: Antimalarial activity against […] infected in human erythrocytes assessed as inhibition of parasitic growth at 0.16 to 0.63 uM incubated for 72 hrs by SYBR green dye fluorimetric assay relative to control. In kind it is functional, K1, Erythrocyte. Also on record: scale not given: the % may be the effect or the level left. The following applies: dose 0.16-0.63 µM.

The subject of data set [15] is Plasmodium yoelii. Put plainly: Antimalarial activity against Plasmodium yoelii N67 infected in female Swiss mouse model assessed as parasite survival at 20 mg/kg, po measured after 7 days relative to control. The following applies: N67, 168 h, time 7 day. In kind it is functional.
Data set [16] deals with Plasmodium yoelii. Put plainly: Antimalarial activity against Plasmodium yoelii N67 infected in female Swiss mouse model assessed as mean survival time at 20 mg/kg administered orally. The data set is classed as functional. The following applies: route po.
Data set [17] deals with Plasmodium yoelii. The data set can be described thus: Antimalarial activity against Plasmodium yoelii N67 infected in female Swiss mouse model assessed as mean survival time at 10 mg/kg administered orally. In kind it is functional. The following applies: route po.
The test system of data set [18] is Plasmodium yoelii. The data set can be described thus: Antimalarial activity against Plasmodium yoelii N67 infected in female Swiss mouse model assessed as suppression in parasitic growth at 10 mg/kg, po measured on day 7 relative to control. The data set is classed as functional. Conditions: time 7 day.
The subject of data set [19] is Plasmodium yoelii. Put plainly: Antimalarial activity against Plasmodium yoelii N67 infected in female Swiss mouse model assessed as suppression in parasitic growth at 10 mg/kg, po measured on day 4 relative to control. The following applies: time 4 day. In kind it is functional.
Data set [20] relates to Plasmodium yoelii. Put plainly: Antimalarial activity against Plasmodium yoelii N67 infected in female Swiss mouse model assessed as suppression in parasitic growth at 20 mg/kg, po measured on day 4 relative to control. The data set is classed as functional.
For data set [21], the system named is Plasmodium yoelii. Put plainly: Antimalarial activity against Plasmodium yoelii N67 infected in female Swiss mouse model assessed as suppression in parasitic growth at 20 mg/kg, po measured on day 7 relative to control. The data set is classed as functional.

Consider `COc1cc(NC(C)CCCN)c2ncccc2c1` (stereo not given) [PRIMAQUINE], for which the IC50 with Plasmodium berghei came to 2500 nM.
For the compound `Cc1ccc(-c2nc(C(=O)NCc3cn(-c4ccccc4)nn3)cc3c2[nH]c2ccccc23)cc1`, the IC50 in the data set with Plasmodium berghei worked out at 4810 nM; with Plasmodium falciparum [1], 880 nM; in the data set with Plasmodium falciparum [2], 320 nM. Also, the Activity result is given as “Active; Irreversible Structural Deformations Observed” in the data set on Plasmodium falciparum [3]; “Active; Irreversible Structural Deformations Observed” in the data set with Plasmodium falciparum [5]; 82.3% in the data set on Plasmodium falciparum [8]; “Active; Irreversible Structural Deformations Observed” in the data set on Plasmodium falciparum [11]; “Active; Irreversible Structural Deformations Observed” in the data set with Plasmodium falciparum [12]. The “Ratio IC50” value in data set [4] amounted to 0.36. The same compound came in with a half-maximal cytotoxic concentration (CC50) in data set [6] of 187000 nM. For the same compound, the outcome in the data set with Plasmodium falciparum [7] and with Plasmodium falciparum [9] was inactive. The selectivity ratio at 72 h in [10] worked out at 213.
For `O=C(NCc1cn(-c2ccccc2)nn1)c1cc2c([nH]c3ccccc32)c(-c2cccc(Cl)c2)n1`, the IC50 is 800 nM with Plasmodium falciparum [1] and 820 nM with Plasmodium falciparum [2]. Further, in data set [4], the “Ratio IC50” value is given as 1.025. For the same compound, the CC50 in [6] is 217000 nM. For the same compound, the selectivity ratio at 72 h in data set [10] is 271.
The corresponding values for `COc1ccc(-c2nc(C(=O)NCc3cn(-c4cccc(C(F)(F)F)c4)nn3)cc3c2[nH]c2ccccc23)cc1` are 450 nM, 650 nM, 1.44, 200000 nM and 444.
As to `O=C(NCc1cn(-c2ccc(C(F)(F)F)cc2)nn1)c1cc2c([nH]c3ccccc32)c(-c2ccc(Cl)cc2Cl)n1`, the IC50 in the data set on Plasmodium falciparum [1] came out at 980 nM; in the data set with Plasmodium falciparum [2], 760 nM. For the same compound, the Activity result with Plasmodium falciparum [3] is given as “Active; Irreversible Structural Deformations Observed”; in the data set on Plasmodium falciparum [5], “Active; Irreversible Structural Deformations Observed”; with Plasmodium falciparum [8] it was 95.63%; in the data set on Plasmodium falciparum [11], “Active; Irreversible Structural Deformations Observed”; with Plasmodium falciparum [12], “Active; Irreversible Structural Deformations Observed”; with Plasmodium falciparum [14] it was 14%. Moreover, in [4], the “Ratio IC50” value is on record as 0.78. For the same compound, the CC50 in data set [6] was determined as 240000 nM. The outcome in the data set on Plasmodium falciparum [13] was Active. In addition, the outcome in the data set on Plasmodium falciparum [7] and in the data set with Plasmodium falciparum [9] was inactive. Moreover, the selectivity ratio at 72 h in data set [10] was 245.
For the compound `O=C(NCc1cn(-c2ccccc2)nn1)c1cc2c([nH]c3ccccc32)c(-c2ccc(C(F)(F)F)cc2)n1`, the IC50 with Plasmodium falciparum [1] was found to be 370 nM; with Plasmodium falciparum [2] it was 750 nM. Further, the “Ratio IC50” value in [4] is recorded as 2.03. In data set [6], this compound had a CC50 of 159000 nM. Moreover, in data set [10], the selectivity ratio at 72 h is 430.
Regarding `CCc1ccc(-n2cc(CNC(=O)c3cc4c([nH]c5ccccc54)c(-c4ccc(C)cc4)n3)nn2)cc1`, the results for the half-maximal inhibitory concentration (IC50) in the data set with Plasmodium berghei, in the data set with Plasmodium falciparum [1] and in the data set on Plasmodium falciparum [2] were 7580 nM, 750 nM and 490 nM, respectively. For the same compound, the Activity result is “Active; Irreversible Structural Deformations Observed” with Plasmodium falciparum [3]; “Active; Irreversible Structural Deformations Observed” in the data set with Plasmodium falciparum [5]; 100% with Plasmodium falciparum [8]; “Active; Irreversible Structural Deformations Observed” in the data set with Plasmodium falciparum [11]; “Active; Irreversible Structural Deformations Observed” in the data set on Plasmodium falciparum [12]. For the same compound, the “Ratio IC50” value in data set [4] is 0.65. Besides, in data set [6], the CC50 turned out to be 200000 nM. Also, the outcome with Plasmodium falciparum [7] and in the data set on Plasmodium falciparum [9] was inactive. For the same compound, in data set [10], the selectivity ratio at 72 h stood at 266.
On to `O=C(NCc1cn(-c2ccc(F)cc2)nn1)c1cc2c([nH]c3ccccc32)c(-c2ccc(C(F)(F)F)cc2)n1`, for which the IC50 in the data set with Plasmodium falciparum [1] was found to be 210 nM; in the data set on Plasmodium falciparum [2], 610 nM. Also, the “Ratio IC50” value in data set [4] is reported as 2.9. Besides, the CC50 in [6] was found to be 71700 nM. Further, the selectivity ratio at 72 h in [10] was 341.
Take `CCN(CC)CCCC(C)Nc1ccnc2cc(Cl)ccc12` (stereo not given) [CHLOROQUINE]: in the data set on Plasmodium yoelii [15], the survival at 20 mg/kg worked out at 60%. Moreover, the MST with Plasmodium yoelii [16] was greater than 28 days; in the data set on Plasmodium yoelii [17], 16 days. Also, the Activity in the data set on Plasmodium yoelii [18] came out at 88%; in the data set on Plasmodium yoelii [19], 97.8%; in the data set with Plasmodium yoelii [20], 99%; in the data set with Plasmodium yoelii [21] it was 91%.
Take `COc1ccc(-n2cc(CNC(=O)c3cc4c([nH]c5ccccc54)c(-c4ccc(Cl)cc4Cl)n3)nn2)cc1`: the IC50 came out at 920 nM in the data set on Plasmodium falciparum [1] and 570 nM in the data set with Plasmodium falciparum [2]. The Activity entry in the data set on Plasmodium falciparum [3] is “Active; Irreversible Structural Deformations Observed”; in the data set with Plasmodium falciparum [5] it was “Active; Irreversible Structural Deformations Observed”; in the data set on Plasmodium falciparum [8], 95.63%; in the data set with Plasmodium falciparum [11] it was “Active; Irreversible Structural Deformations Observed”; in the data set on Plasmodium falciparum [12], “Active; Irreversible Structural Deformations Observed”. In data set [4], the “Ratio IC50” value stood at 0.62. The compound also gave a CC50 in data set [6] of 221000 nM. Further, the outcome in the data set with Plasmodium falciparum [7] and with Plasmodium falciparum [9] was inactive. In addition, the selectivity ratio at 72 h in data set [10] worked out at 240.

The values are drawn from ChEMBL document CHEMBL6177959, “Design, synthesis and evaluation of novel carboline-triazole hybrids as promising antimalarial agents” (Eur J Med Chem, 2025).
